Source: patent US10017506B2, “ATX modulating agents” (BIOGEN MA INC., priority 2012, dated 2018)

Each compound was assayed against T1, Human ATX protein (Homo sapiens, UniProt Q13822) (assay: ATX biochemical FRET assay with FS-3 substrate). Conditions: FRET substrate FS-3 2 μM, ATX 1.0 μg/mL, 30 minutes pre-incubation, 2 hours at room temperature; read-out: IC50.
T1 construct: made in house
Description: ATX (Autotaxin) is a 125 KDa glycoprotein with lysophospholipase D (LPLD) activity that generates the bioactive lipid lysophosphatidic acid (LPA) from lysophosphatidylcholine (LPC). The ATX biochemical assay utilizes a FRET (fluorescence resonance energy transfer) technology platform. The fluorescence signal of FRET substrate FS-3 is quenched due to intra-molecular FRET of a fluorophore to a non-fluorescing quencher (Ferguson, C. G., et al., Org Lett. 2006 May 11; 8(10): 2023-2026, which is incorporated by reference in its entirety). ATX catalyzes the hydrolysis of the substrate which separates the dabsyl quencher from the fluorescein reporter, which becomes fluorescent. The reaction is monitored by a SpectraMax M5 (Molecular Devices, Sunnyvale, Calif.) with at excitation wavelength 485 nm and emission wavelength […].
Fatty acid free-BSA (Sigma A8806): 10 mg/mL in H2O, stored at 4° C.
2×ATX assay buffer: 100 mM Tris, 280 mM NaCl, 10 mM KCl, 2 mM CaCl2, 2 mM MgCl2, pH 7.4.
Human ATX protein: expressed and purified in house. Stored at −80° C.
Substrate FS-3 (Echelon, L-2000): 100 μg in 77.74 μL H2O (1 mM stock), stored at −20° C.
384-well flat bottom plates—Corning #3575.
Compound dilution—All compounds were provided at 10 mM in 100% DMSO. In the first well, 2 μL of 10 mM compound was added to 78 μL of DMSO (1:40 dilution). In subsequent wells 3-fold dilution (total 10 dilutions) were performed.
1×ATX assay buffer was made up with a final concentration of 1 mg/mL fatty acid free-BSA using 2×ATX assay buffer, 10 mg/ml fatty acid free-BSA and ddH2O.
ATX protein was diluted with 1×ATX assay buffer to a concentration of 1.32 μg/mL (1.32×). 38 μL was added per well to the assay plate. The final concentration of ATX in the reaction as 1.0 μg/mL.
2 μL per well of compounds was transferred to provide the desired concentration. The plate was centrifuged, then incubated at room temperature for 30 minutes on the shaker.
Then, 10 μL was added per well to the assay plate. […] The plate was centrifuged. The plate was kept shaking at room temperature for 2 hours. Because FS-3 substrate is light sensitive, plates were kept covered and protected from light.
Fluorescence was measured using SpectraMax M5 (excitation at 485 nm/emission at 538 nm, top read).
For `CCC(c1ccc2ccc(O[C@H]3CC[C@@H](CC)CC3)c(C(F)(F)F)c2c1)N1CCC(C(=O)O)CC1` (stereo partly drawn) [Example 60, 1-(1-(7-((cis-4-ethylcyclohexyl)oxy)-8-(trifluoromethyl)naphthalen-2-yl)propyl)piperidine-4-carboxylic acid], the IC50 was ≤ 250 nM. `CC[C@H]1CC[C@@H](Oc2ccc3ccc(CN4CCC[C@H](CC(=O)O)C4)cc3c2C(F)(F)F)CC1` [Example 53, 2-((R)-1-((7-((cis-4-ethylcyclohexyl)oxy)-8-(trifluoromethyl)naphthalen-2-yl)methyl)piperidin-3-yl)acetic acid] was tested, and the IC50 was ≤ 500 nM. With `CC(c1ccc2ccc(O[C@H]3CC[C@@H](C(F)(F)F)CC3)c(C(F)(F)F)c2c1)N1CCC(C(=O)O)CC1` (stereo partly drawn) [Example 44, 1-(1-(8-(trifluoromethyl)-7-((cis-4-(trifluoromethyl)cyclohexyl)oxy)naphthalen-2-yl)ethyl)piperidine-4-carboxylic acid] the IC50 was ≤ 100 nM. In the case of `CC(c1ccc2ccc(O[C@H]3CC[C@@H](C)CC3)c(C(F)(F)F)c2c1)N1CCC(C(=O)O)CC1` (stereo partly drawn) [Example 80, 1-(1-(7-((cis-4-methylcyclohexyl)oxy)-8-(trifluoromethyl)naphthalen-2-yl)ethyl)piperidine-4-carboxylic acid], the IC50 is reported as ≤ 250 nM. With `C[C@H](N[C@@H]1C[C@H](C(=O)O)C1(C)C)c1ccc2ccc(O[C@H]3CC[C@@H](C(F)(F)F)CC3)c(C(F)(F)F)c2c1` [Example 121b, (1S,3R)-2,2-dimethyl-3-(((S)-1-(8-(trifluoromethyl)-7-((cis-4-(trifluoromethyl)cyclohexyl)oxy)naphthalen-2-yl)ethyl)amino)cyclobutanecarboxylic acid] the IC50 was ≤ 100 nM. With `CCC(c1ccc2ccc(O[C@H]3CC[C@@H](C(F)(F)F)CC3)c(C(F)(F)F)c2c1)N1CCC(C(=O)O)CC1` (stereo partly drawn) [Example 45, 1-(1-(8-(trifluoromethyl)-7-((cis-4-(trifluoromethyl)cyclohexyl)oxy)naphthalene-2-yl)propyl)piperidine-4-carboxylic acid] the IC50 was ≤ 250 nM. `C[C@@H](N[C@H]1C[C@H](C(=O)O)C1(C)C)c1ccc2ccc(O[C@H]3CC[C@@H](C)CC3)c(C(F)(F)F)c2c1` [Example 114c, (1S,3S)-2,2-dimethyl-3-(((R)-1-(7-((cis-4-methylcyclohexyl)oxy)-8-(trifluoromethyl)naphthalen-2-yl)ethyl)amino)cyclobutanecarboxylic acid] was tested, and the IC50 was ≤ 100 nM. In the case of `CCC(N[C@H]1CC[C@@H](C(=O)O)CC1)c1ccc2ccc(O[C@H]3CC[C@@H](CC)CC3)c(C(F)(F)F)c2c1` (stereo partly drawn) [Example 145, cis-4-((1-(7-((cis-4-ethylcyclohexyl)oxy)-8-(trifluoromethyl)naphthalen-2-yl)propyl)amino)cyclohexanecarboxylic acid], the IC50 is reported as ≤ 100 nM. For `CC(N[C@H]1CC[C@H](C(=O)O)CC1)c1ccc2ccc(O[C@H]3CC[C@@H](C(F)(F)F)CC3)c(C(F)(F)F)c2c1` (stereo partly drawn) [Example 143, trans-4-((1-(8-(trifluoromethyl)-7-((cis-4-(trifluoromethyl)cyclohexyl)oxy)naphthalen-2-yl)ethyl)amino)cyclohexanecarboxylic acid], the IC50 was ≤ 500 nM. In the case of `CC[C@H]1CC[C@@H](Oc2ccc3ccc(C(C)N[C@@H]4C[C@H](C(=O)O)C4(C)C)cc3c2C(F)(F)F)CC1` (stereo partly drawn) [Example 115, (1S,3R)-3-((1-(7-((cis-4-ethylcyclohexyl)oxy)-8-(trifluoromethyl)naphthalen-2-yl)ethyl)amino)-2,2-dimethylcyclobutanecarboxylic acid], the IC50 is reported as ≤ 100 nM. `CC(C)(C)[C@H]1CC[C@H](Nc2cc3cc(C(=O)NC4CCCC(C(=O)O)C4)ccc3cn2)CC1` (stereo partly drawn) [Example 150, 3-(3-((trans-4-(tert-butyl)cyclohexyl)amino)isoquinoline-6-carboxamido)cyclohexanecarboxylic acid] was tested, and the IC50 was ≤ 250 nM. `CC[C@H]1CC[C@@H](Oc2ccc3ccc([C@@H](C)N[C@@H]4C[C@@H](C(=O)O)C4(C)C)cc3c2C(F)(F)F)CC1` [Example 117c, (1R,3R)-3-(((R)-1-(7-((cis-4-ethylcyclohexyl)oxy)-8-(trifluoromethyl)naphthalen-2-yl)ethyl)amino)-2,2-dimethylcyclobutanecarboxylic acid] was tested, and the IC50 was ≤ 100 nM. `CC[C@H]1CC[C@@H](Oc2ccc3ccc(C(C)NC4CC(C(=O)O)C4(C)C)cc3c2C(F)(F)F)CC1` (stereo partly drawn) [Example 59, 3-((1-(7-((cis-4-ethylcyclohexyl)oxy)-8-(trifluoromethyl)naphthalen-2-yl)ethyl)amino)-2,2-dimethylcyclobutanecarboxylic acid] was tested, and the IC50 was ≤ 100 nM. With `CC[C@H]1CC[C@@H](Oc2ccc3ccc(CNC4CC(C(=O)O)C4(C)C)cc3c2C(F)(F)F)CC1` (stereo partly drawn) [Example 54, 3-(((7-((cis-4-ethylcyclohexyl)oxy)-8-(trifluoromethyl)naphthalen-2-yl)methyl)amino)-2,2-dimethylcyclobutanecarboxylic acid] the IC50 was ≤ 500 nM. `C[C@@H](N[C@H]1C[C@@H](C(=O)O)C1(C)C)c1ccc2ccc(O[C@H]3CC[C@@H](C)CC3)c(C(F)(F)F)c2c1` [Example 114d, (1R,3S)-2,2-dimethyl-3-(((R)-1-(7-((cis-4-methylcyclohexyl)oxy)-8-(trifluoromethyl)naphthalen-2-yl)ethyl)amino)cyclobutanecarboxylic acid] was tested, and the IC50 was ≤ 500 nM.

Same assay, conditions: IC50, FRET substrate FS-3 2 μM, ATX 1.0 μg/mL, 30 minutes pre-incubation, 2 hours at room temperature
In the case of `O=C(O)C1CC2CCC(C1)N2C(=O)c1ccc2ccc(O[C@H]3CC[C@@H](C(F)(F)F)CC3)c(C(F)(F)F)c2c1` (relative stereo) [Example 23, 8-(8-(trifluoromethyl)-7-((cis-4-(trifluoromethyl)cyclohexyl)oxy)-2-naphthoyl)-8-azabicyclo[3.2.1]octane-3-carboxylic acid], the IC50 is reported as ≤ 250 nM. In the case of `C[C@H]1CC[C@@H](Oc2ccc3ccc(CN4C5CCCC4CC(C(=O)O)C5)cc3c2C(F)(F)F)CC1` (stereo partly drawn) [Example 2, 9-[7-(cis-4-methyl-cyclohexyloxy)-8-trifluoromethyl-naphthalen-2-ylmethyl]-9-aza-bicyclo[3.3.1]nonane-3-carboxylic acid], the IC50 is reported as ≤ 100 nM. With `CC(c1ccc2ccc(O[C@H]3CC[C@@H](C(F)(F)F)CC3)c(C(F)(F)F)c2c1)N1C2CCCC1CC(C(=O)O)C2` (stereo partly drawn) [Example 10, 9-{1-[7-(cis-4-trifluoromethyl-cyclohexyloxy)-8-trifluoromethyl-naphthalen-2-yl]-ethyl}-9-aza-bicyclo[3.3.1]nonane-3-carboxylic acid] the IC50 was ≤ 100 nM. With `C[C@H]1CC[C@@H](Oc2ccc3ccc(CN4C5CCC4CC(C(=O)O)C5)cc3c2Cl)CC1` (stereo partly drawn) [Example 83, 8-((8-chloro-7-((cis-4-methylcyclohexyl)oxy)naphthalen-2-yl)methyl)-8-azabicyclo[3.2.1]octane-3-carboxylic acid] the IC50 was ≤ 250 nM. With `CC[C@H]1CC[C@@H](Oc2ccc3ccc(C(C)N4C5CCCC4CC(C(=O)O)C5)cc3c2C#N)CC1` (stereo partly drawn) [Example 74, 9-(1-(8-cyano-7-((cis-4-ethylcyclohexyl)oxy)naphthalen-2-yl)ethyl)-9-azabicyclo[3.3.1]nonane-3-carboxylic acid] the IC50 was ≤ 100 nM. With `CC(c1ccc2ccc(O[C@H]3CC[C@@H](C)CC3)c(C(F)(F)F)c2c1)N1C2CCCC1CC(C(=O)O)C2` (stereo partly drawn) [Example 5, 9-{1-[7-(cis-4-methyl-cyclohexyloxy)-8-trifluoromethyl-naphthalen-2-yl]-ethyl}-9-aza-bicyclo[3.3.1]nonane-3-carboxylic acid] the IC50 was ≤ 100 nM. In the case of `CC[C@H]1CC[C@@H](Oc2ccc3ccc(CN4C5CCC4CC(C(=O)O)C5)cc3c2Cl)CC1` (stereo partly drawn) [Example 48, 8-((8-chloro-7-((cis-4-ethylcyclohexyl)oxy)naphthalen-2-yl)methyl)-8-azabicyclo[3.2.1]octane-3-carboxylic acid], the IC50 is reported as ≤ 100 nM. `CCC(c1ccc2ccc(O[C@H]3CC[C@@H](C)CC3)c(C(F)(F)F)c2c1)N1C2CCC1CC(C(=O)O)C2` (relative stereo) [Example 18, 8-(1-(7-((cis-4-methylcyclohexyl)oxy)-8-(trifluoromethyl)naphthalen-2-yl)propyl)-8-azabicyclo[3.2.1]octane-3-carboxylic acid] was tested, and the IC50 was ≤ 250 nM. `C[C@H](c1ccc2ccc(O[C@H]3CC[C@@H](C(F)(F)F)CC3)c(C(F)(F)F)c2c1)N1C2CCC1CC(C(=O)O)C2` (stereo partly drawn) [Example 12b, 8-{(R)-1-[7-(cis-4-trifluoromethyl-cyclohexyloxy)-8-trifluoromethyl-naphthalen-2-yl]-ethyl}-8-aza-bicyclo[3.2.1]octane-3-carboxylic acid] was tested, and the IC50 was ≤ 100 nM.
